1 compound from patent publication US9215877B2, “Compositions including a vacancy-engineered(VE)-ZnO nanocomposite, methods of making a composition , method of using a composition” (priority 2014, dated 2015) can be followed below.

The subject of this assay is E. coli. The assay can be described thus: Minimum inhibitory concentration (MIC) against E. coli. Type of assay: cell-based. The conditions noted are these: Escherichia coli, read-out: MIC (μg/mL) in metallic Zn or Cu.

For the compound `O=C([O-])c1ccccc1O.[Na+]` [Capping Agent, sodium salicylate], the MIC came out at 3000 µg/mL.
